Measured values as given in patent US20090281157A1, “Active Ingredient Combinations With Insecticidal and Acaricidal Properties” (Bayer Cropscience AG, priority 2006, published 2009).

What was measured:
Format in all cases: in vivo
Aphis gossypii = Aphis gossypii test (dipped cotton leaves)
Experimental: (§1) To produce a suitable preparation of active compound, 1 part by weight of active compound is mixed with the stated amounts of solvent and emulsifier, and the concentrate is diluted with emulsifier-containing water to the desired concentration.
Cotton leaves (Gossypium herbaceum) which are heavily infested by the cotton aphid (Aphis gossypii) are treated by being dipped into the active compound preparation of the desired concentration.
(§2) After the desired period of time, the kill in % is determined. 100% means that all aphids have been killed; 0% means that none of the aphids have been killed. The kill rates determined are entered into Colby's formula.

Myzus persicae = Myzus persicae test (spray on infested cabbage leaves)
Experimental: (§3) To produce a suitable preparation of active compound, 1 part by weight of active compound is mixed with the stated amounts of solvents and emulsifier, and the concentrate is diluted with emulsifier-containing water to the desired concentration.
Cabbage leaves (Brassica oleracea) which are heavily infested by the Green peach aphid (Myzus persicae), are treated by spraying with the active compound preparation of the desired concentration.
as §2

Tetranychus urticae = experiment: Tetranychus test (OP-resistant/spray treatment) on bean leaf disks
Experimental: as §1
Disks of bean leaves (Phaseolus vulgaris) which are infested by all stages of the greenhouse red spider mite (Tetranychus urticae) are sprayed with an active compound preparation of the desired concentration.
After the desired period of time, the activity in % is determined. 100% means that all spider mites have been killed; 0% means that none of the spider mites have been killed.

Phaedon cochleariae = Phaedon cochleariae larvae test (sprayed cabbage leaves)
Experimental: as §3
Cabbage leaves (Brassica oleracea) are treated by spraying with the active compound preparation of the desired concentration and are populated with larvae of the mustard beetle (Phaedon cochleariae) while the leaves are still moist.
After the desired period of time, the kill in % is determined. 100% means that all beetle larvae have been killed; 0% means that none of the beetle larvae have been killed. The kill rates determined are entered into Colby's formula.

Spodoptera frugiperda = Spodoptera frugiperda larvae test (sprayed cabbage leaves)
Experimental: as §3
Cabbage leaves (Brassica oleracea) are treated by spraying with the active compound preparation of the desired concentration and are populated with larvae of the armyworm (Spodoptera frugiperda) while the leaves are still moist.
After the desired period of time, the kill in % is determined. 100% means that all caterpillars have been killed; 0% means that none of the caterpillars have been killed. The kill rates determined are entered into Colby's formula.

SMILES: CC1(C)C(/C=C(\Cl)C(F)(F)F)C1C(=O)OC(C#N)c1cccc(Oc2ccccc2)c1 [L-cyhalothrin, lambda-cyhalothrin]
- Kill in % after 1d (Aphis gossypii; 0.16 ppm): 20%
- Kill in % after 1d (Myzus persicae; 0.16 g/ha): 10%
- Kill in % after 6d (Tetranychus urticae; 0.032 g/ha): 0%

SMILES: CC1(C)C(C=C(Cl)Cl)C1C(=O)OC(C#N)c1cccc(Oc2ccccc2)c1 (stereo not drawn) [alpha-cypermethrin]
- Kill in % after 6d (Phaedon cochleariae; 0.8 g/ha): 67%

SMILES: Cc1c(COC(=O)C2C(/C=C(\Cl)C(F)(F)F)C2(C)C)cccc1-c1ccccc1 (stereo not shown) [bifenthrin]
- Kill in % after 1d (Myzus persicae; 0.0064 g/ha): 0%
- Kill in % after 6d (Spodoptera frugiperda; 0.8 g/ha): 0%

SMILES: CO[C@H]1CC[C@]2(CC1)NC(=O)C(c1cc(C)ccc1C)=C2O [compound (I)]
- Kill in % after 1d (Aphis gossypii; 4 ppm): 0%

SMILES: CCOC(=O)OC1=C(c2cc(C)ccc2C)C(=O)N[C@]12CC[C@@H](OC)CC2 [compound (II)]
- Kill in % after 1d (Myzus persicae; 0.8 g/ha): 20%
- Kill in % after 1d (Myzus persicae; 20 g/ha): 0%
- Kill in % after 6d (Phaedon cochleariae; 4 g/ha): 0%
- Kill in % after 6d (Phaedon cochleariae; 20 g/ha): 0%
- Kill in % after 6d (Phaedon cochleariae; 100 g/ha): 50%
- Kill in % after 6d (Tetranychus urticae; 0.8 g/ha): 50%
- Kill in % after 2d (Tetranychus urticae; 4 g/ha): 50%
- Kill in % after 6d (Tetranychus urticae; 4 g/ha): 90%
- Kill in % after 2d (Tetranychus urticae; 100 g/ha): 70%
- Kill in % after 6d (Spodoptera frugiperda; 20 g/ha): 17%
- Kill in % after 6d (Spodoptera frugiperda; 100 g/ha): 67%

SMILES: CCOC(=O)OC1=C(c2cc(C)ccc2C)C(=O)NC12CCC(OC)CC2 (stereo not shown) [compound (II-a)]
- Kill in % after 1d (Myzus persicae; 0.8 g/ha): 20%
- Kill in % after 1d (Myzus persicae; 20 g/ha): 0%
- Kill in % after 6d (Phaedon cochleariae; 4 g/ha): 0%
- Kill in % after 6d (Phaedon cochleariae; 20 g/ha): 0%
- Kill in % after 6d (Phaedon cochleariae; 100 g/ha): 83%
- Kill in % after 6d (Tetranychus urticae; 0.8 g/ha): 60%
- Kill in % after 2d (Tetranychus urticae; 4 g/ha): 30%
- Kill in % after 6d (Tetranychus urticae; 4 g/ha): 90%
- Kill in % after 2d (Tetranychus urticae; 100 g/ha): 40%
- Kill in % after 6d (Spodoptera frugiperda; 20 g/ha): 17%
- Kill in % after 6d (Spodoptera frugiperda; 100 g/ha): 50%

SMILES: COC1CCC2(CC1)NC(=O)C(c1cc(C)ccc1C)=C2O (stereo not shown) [compound (Ia)]
- Kill in % after 1d (Aphis gossypii; 4 ppm): 0%

SMILES: CC1(C)C(C=C(Cl)Cl)C1C(=O)OC(C#N)c1cccc(Oc2ccccc2)c1 (stereo not shown) [cypermethrin]
- Kill in % after 6d (Phaedon cochleariae; 0.8 g/ha): 17%
- Kill in % after 6d (Spodoptera frugiperda; 0.8 g/ha): 0%

SMILES: CC1(C)[C@H](C(=O)O[C@H](C#N)c2cccc(Oc3ccccc3)c2)[C@@H]1C=C(Br)Br [deltamethrin]
- Kill in % after 2d (Tetranychus urticae; 0.032 g/ha): 10%

SMILES: CC1(C)[C@H](/C=C(\Cl)C(F)(F)F)[C@@H]1C(=O)O[C@H](C#N)c1cccc(Oc2ccccc2)c1 [gamma-cyhalothrin]
- Kill in % after 1d (Myzus persicae; 0.0064 g/ha): 0%

SMILES: CC1(C)C(C=C(Cl)Cl)C1C(=O)OC(C#N)c1cccc(Oc2ccccc2)c1 (stereo not shown) [zeta-cypermethrin]
- Kill in % after 6d (Phaedon cochleariae; 0.16 g/ha): 0%

SMILES: CC1(C)C(C=C(Cl)Cl)C1C(=O)OC(C#N)c1ccc(F)c(Oc2ccccc2)c1 (stereo not drawn) [β-cyfluthrin, betacyfluthrin]
- Kill in % after 1d (Myzus persicae; 0.0064 g/ha): 0%
- Kill in % after 6d (Tetranychus urticae; 0.0064 g/ha): 0%
